Laboratory results published in patent publication US7081538B1, “Substituted isoxazolines and their use as antibacterial agents” (priority 1999, dated 2006).
Values after ≈ are worked out from the molar mass of the structure shown.

Assays:
Format in all cases: cell-based
[1] = test system: Staphylococcus aureus Novb. Res (Novobiocin resistant); experiment: MIC by agar-dilution, Staphylococcus aureus Novb. Res; conditions: inoculum 10^4 CFU/spot, 37° C., 24 hours
Experimental: (§1) The following results were obtained on a standard in-vitro test system. The activity is described in terms of the minimum inhibitory concentration (MIC) determined by the agar-dilution technique with an inoculum size of 10^4 CFU/spot. Typically, compounds are active in the range 0.01 to 256 μg/ml.
(§2) Staphylococci were tested on agar, using an inoculum of 10^4 CFU/spot and an incubation temperature of 37° C. for 24 hours—standard test conditions for the expression of methicillin resistance.

[2] = test system: Enterococcus faecalis; experiment: MIC by agar-dilution, Enterococcus faecalis; conditions: agar with 5% defibrinated horse blood, 10^4 CFU/spot, 37° C., 5% carbon dioxide, 48 hours
Experimental: as §1
(§3) Streptococci and enterococci were tested on agar supplemented with 5% defibrinated horse blood, an inoculum of 10^4 CFU/spot and an incubation temperature of 37° C. in an atmosphere of 5% carbon dioxide for 48 hours—blood is required for the growth of some of the test organisms.

[3] = test system: Staphylococcus aureus MRQR (methicillin resistant quinolone resistant); experiment: MIC by agar-dilution, Staphylococcus aureus MRQR; conditions: inoculum 10^4 CFU/spot, 37° C., 24 hours
Experimental: as §1, §2

[4] = test system: Streptococcus pyogenes C203; experiment: MIC by agar-dilution, Streptococcus pyogenes C203; conditions: agar with 5% defibrinated horse blood, 10^4 CFU/spot, 37° C., 5% carbon dioxide, 48 hours
Experimental: as §1, §3

[5] = test system: Coagulase Negative Staphylococci MR (methicillin resistant); experiment: MIC by agar-dilution, Coagulase Negative Staphylococci MR; conditions: inoculum 10^4 CFU/spot, 37° C., 24 hours
Experimental: as §1, §2

[6] = test system: Coagulase Negative Staphylococci MS (methicillin sensitive); experiment: MIC by agar-dilution, Coagulase Negative Staphylococci MS; conditions: inoculum 10^4 CFU/spot, 37° C., 24 hours
Experimental: as §1, §2

[7] = test system: Staphylococcus aureus Oxford; experiment: MIC by agar-dilution, Staphylococcus aureus Oxford; conditions: inoculum 10^4 CFU/spot, 37° C., 24 hours
Experimental: as §1, §2

[8] = test system: Bacillus subtilis; experiment: MIC by agar-dilution, Bacillus subtilis; conditions: inoculum 10^4 CFU/spot
Experimental: as §1

Structure (SMILES): O=C(CO)N1CC=C(c2ccc(C3=NOC(CNc4ccon4)C3)cc2)CC1 (racemic) [Example 1, (5RS)-3-(4-(1-Hydroxyacetyl-1,2,5,6-tetrahydropyrid-4-yl)phenyl)-5-(3-isoxazolylaminomethyl)-4,5-dihydro-isoxazole]
- MIC [1]: 4 mg/L (≈ 10.5 µM)
- MIC [2]: 8 mg/L (≈ 20.9 µM)
- MIC [3]: 4 mg/L (≈ 10.5 µM)
- MIC [4]: 8 mg/L (≈ 20.9 µM)
- MIC [5]: 2 mg/L (≈ 5.23 µM)
- MIC [6]: 1 mg/L (≈ 2.61 µM)
- MIC [7]: 2 mg/L (≈ 5.23 µM)
- MIC [8]: 1 mg/L (≈ 2.61 µM)
